For orientation: Kd means the equilibrium constant for the complex coming apart. Higher therefore signals lower affinity.

Entries after “also recorded” stand apart in the source; their conditions may differ. Where two headings read alike, the source gives them in different places.

For data set [1], the target named is T1, P450 2A6 (Homo sapiens, UniProt P11509).
T1 sequence (P11509 1-494): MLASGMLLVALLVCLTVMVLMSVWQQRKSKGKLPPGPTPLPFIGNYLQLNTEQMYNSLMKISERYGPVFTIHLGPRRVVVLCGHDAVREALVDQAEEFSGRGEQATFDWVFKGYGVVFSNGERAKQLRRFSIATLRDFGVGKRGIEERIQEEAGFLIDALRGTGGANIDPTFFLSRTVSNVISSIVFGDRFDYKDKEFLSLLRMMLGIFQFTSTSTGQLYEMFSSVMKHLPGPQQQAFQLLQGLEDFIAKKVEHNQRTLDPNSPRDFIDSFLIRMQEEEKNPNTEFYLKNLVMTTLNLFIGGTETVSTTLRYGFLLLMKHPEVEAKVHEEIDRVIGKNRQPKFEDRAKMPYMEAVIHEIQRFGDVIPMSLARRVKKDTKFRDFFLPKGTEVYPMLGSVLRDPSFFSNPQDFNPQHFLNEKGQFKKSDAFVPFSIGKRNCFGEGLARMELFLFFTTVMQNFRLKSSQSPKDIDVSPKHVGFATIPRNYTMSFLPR
The data set is described as follows: Spectral binding titration with P450 2A6.

Another data set concerns the target P450 2C9 (Homo sapiens, UniProt P11712). Briefly: Spectral binding titration with P450 2C9.
Another data set concerns the target P450 3A4 (Homo sapiens, UniProt P08684). The data set is described as follows: Spectral binding titration with P450 3A4.
Another data set deals with T2, P450 1A2 (Homo sapiens, UniProt P05177).
T2 sequence (P05177 1-516): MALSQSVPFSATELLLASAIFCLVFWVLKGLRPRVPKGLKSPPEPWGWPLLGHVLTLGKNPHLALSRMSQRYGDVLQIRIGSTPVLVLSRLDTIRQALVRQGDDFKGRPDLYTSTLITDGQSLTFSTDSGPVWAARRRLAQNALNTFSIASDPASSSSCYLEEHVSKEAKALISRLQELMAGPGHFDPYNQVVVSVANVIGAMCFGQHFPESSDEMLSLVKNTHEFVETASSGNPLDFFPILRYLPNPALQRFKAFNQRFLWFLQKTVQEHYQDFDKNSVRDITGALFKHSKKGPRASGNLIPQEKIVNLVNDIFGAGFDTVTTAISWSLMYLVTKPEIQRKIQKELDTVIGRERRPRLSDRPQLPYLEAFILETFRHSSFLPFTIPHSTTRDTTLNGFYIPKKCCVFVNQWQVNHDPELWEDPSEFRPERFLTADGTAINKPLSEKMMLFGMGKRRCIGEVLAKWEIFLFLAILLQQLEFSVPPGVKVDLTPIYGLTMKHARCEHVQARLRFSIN
Briefly: Spectral binding titration with P450 1A2.

Data set [2] concerns the target T3, P450 2A13 (Homo sapiens, UniProt Q16696).
T3 sequence (Q16696 1-494): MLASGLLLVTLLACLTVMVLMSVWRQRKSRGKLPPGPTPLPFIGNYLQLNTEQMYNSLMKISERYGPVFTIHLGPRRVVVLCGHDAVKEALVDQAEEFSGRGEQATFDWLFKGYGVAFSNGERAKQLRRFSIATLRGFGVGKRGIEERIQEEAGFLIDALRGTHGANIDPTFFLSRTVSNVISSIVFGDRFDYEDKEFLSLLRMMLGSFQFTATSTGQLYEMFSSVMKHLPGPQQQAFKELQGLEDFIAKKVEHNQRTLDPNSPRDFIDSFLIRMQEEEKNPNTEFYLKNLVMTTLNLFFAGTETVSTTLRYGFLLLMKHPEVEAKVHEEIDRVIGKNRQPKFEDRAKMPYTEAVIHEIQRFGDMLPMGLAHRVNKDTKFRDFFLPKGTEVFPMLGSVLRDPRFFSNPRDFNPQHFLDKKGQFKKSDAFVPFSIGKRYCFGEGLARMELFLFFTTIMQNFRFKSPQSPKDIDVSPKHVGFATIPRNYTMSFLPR
The data set is described as follows: Spectral binding titration with P450 2A13.

The target in the next data set is T4, P450 1B1 (Homo sapiens, UniProt Q16678).
T4 sequence (Q16678 1-543): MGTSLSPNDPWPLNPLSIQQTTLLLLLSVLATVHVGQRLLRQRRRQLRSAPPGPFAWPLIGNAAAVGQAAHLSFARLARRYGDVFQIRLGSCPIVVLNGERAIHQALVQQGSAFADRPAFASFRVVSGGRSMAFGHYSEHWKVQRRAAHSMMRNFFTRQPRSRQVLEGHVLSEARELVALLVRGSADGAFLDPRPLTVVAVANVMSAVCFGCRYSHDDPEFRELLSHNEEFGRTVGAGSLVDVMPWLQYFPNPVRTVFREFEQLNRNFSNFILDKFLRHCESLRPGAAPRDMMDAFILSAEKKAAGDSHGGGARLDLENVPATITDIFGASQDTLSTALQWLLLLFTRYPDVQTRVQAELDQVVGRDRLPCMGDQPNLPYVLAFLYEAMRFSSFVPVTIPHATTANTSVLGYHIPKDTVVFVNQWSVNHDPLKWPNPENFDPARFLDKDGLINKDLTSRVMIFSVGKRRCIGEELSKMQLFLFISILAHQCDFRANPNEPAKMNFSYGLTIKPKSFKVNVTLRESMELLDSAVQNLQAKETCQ
Briefly: Spectral binding titration with P450 1B1.

In another data set the test system is S. typhimurium NM2009. Briefly: Genotoxicity assay, induction of umu gene expression. The format is cell-based, Salmonella typhimurium. Particulars: for genotoxic activity (induction of umu gene expression): 0-160 µM, without P450; for cytotoxic activity: at concentrations of 80 and 160 µM, tester strain NM2009.
Data set [3] concerns the target T1, P450 2A6. Particulars: cited from earlier work.
In another data set the test system is HepG2. As to conditions: cited from earlier work.
The target in data set [4] is T3, P450 2A13. Particulars: cited from earlier work.
For a further data set, the system named is S. typhimurium TM677. As to conditions: cited from earlier work.
The subject of data set [5] is P450 2A6. Particulars: cited from earlier work.
Data set [6] concerns Salmonella typhimurium TA1537 and TA1538. Particulars: cited from earlier work.
Data set [7] deals with P450 2A13. As to conditions: cited from earlier work.
The next data set concerns S. typhimurium TA120. Particulars: photomutagenesis assay; cited from earlier work.
Data set [8] concerns the target T1, P450 2A6. The data set is described as follows: Oxidation by P450 2A6. The format is in vitro ADME. Particulars: 50 µM substrate, reconstituted system, LC-MS.
Data set [9] concerns the target T3, P450 2A13. The data set is described as follows: Oxidation by P450 2A13. Format: in vitro ADME. Particulars: 50 µM substrate, reconstituted system, LC-MS.
For data set [10] the following is noted: non-classifiable as to carcinogenicity to humans; cited from earlier work.

Sequence of P450 3A4 (P08684 whole entry): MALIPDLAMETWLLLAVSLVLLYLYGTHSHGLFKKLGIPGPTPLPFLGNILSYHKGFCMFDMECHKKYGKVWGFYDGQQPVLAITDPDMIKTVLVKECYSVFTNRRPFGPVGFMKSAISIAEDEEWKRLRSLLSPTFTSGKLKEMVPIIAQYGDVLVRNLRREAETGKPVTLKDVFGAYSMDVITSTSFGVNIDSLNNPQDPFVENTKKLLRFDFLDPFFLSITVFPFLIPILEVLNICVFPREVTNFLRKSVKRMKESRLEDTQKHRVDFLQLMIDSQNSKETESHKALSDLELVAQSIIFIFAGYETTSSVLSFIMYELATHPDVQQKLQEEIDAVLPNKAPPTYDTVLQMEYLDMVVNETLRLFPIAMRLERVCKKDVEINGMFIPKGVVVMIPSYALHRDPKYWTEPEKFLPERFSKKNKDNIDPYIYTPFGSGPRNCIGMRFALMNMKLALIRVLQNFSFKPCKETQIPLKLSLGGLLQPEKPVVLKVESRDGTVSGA
Sequence of P450 2C9 (P11712 whole entry): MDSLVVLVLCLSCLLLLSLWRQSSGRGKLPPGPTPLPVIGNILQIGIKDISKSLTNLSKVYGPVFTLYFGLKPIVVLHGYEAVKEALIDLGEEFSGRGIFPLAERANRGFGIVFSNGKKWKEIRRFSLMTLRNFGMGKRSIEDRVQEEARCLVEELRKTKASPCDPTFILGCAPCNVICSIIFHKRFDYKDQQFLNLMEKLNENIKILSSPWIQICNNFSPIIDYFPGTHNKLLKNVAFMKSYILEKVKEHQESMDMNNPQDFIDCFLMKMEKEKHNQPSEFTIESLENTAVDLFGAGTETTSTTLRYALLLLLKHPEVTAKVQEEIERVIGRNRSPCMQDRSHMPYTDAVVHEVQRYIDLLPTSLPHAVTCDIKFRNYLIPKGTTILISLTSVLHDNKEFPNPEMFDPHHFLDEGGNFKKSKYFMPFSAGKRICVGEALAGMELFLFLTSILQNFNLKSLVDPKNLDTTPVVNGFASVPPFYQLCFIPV

Regarding `OC1Cc2cccc3cccc1c23` (centres unmarked) [1-acenaphthenol], the binding spectra induced entry is recorded as “very weak or undetectable” at P450 2A6 [1] (P450 2A6), “very weak or undetectable” on P450 3A4 (P450 3A4) and “Type I” at P450 2A13 [2] (P450 2A13). The spectral changes entry on P450 2C9, at P450 1A2 and on P450 1B1 was “did not show any spectral changes” throughout. For the same molecule, the values for the Kd at P450 3A4 and at P450 2A13 [2] were 7.8 ± 2.2 µM and 0.48 ± 0.03 µM, respectively. The figures for the “ΔAmax / Ks” value on P450 3A4 (P450 3A4) and on P450 2A13 [2] (P450 2A13) were 0.002 and 0.13, respectively. Moreover, the ΔAmax at P450 3A4 (P450 3A4, ± SE) stood at 0.013 ± 0.001; on P450 2A13 [2] (P450 2A13, ± SE), 0.061±0.001. Moreover, the “genotoxic activity (induction of umu gene expression)” value (from here on “genotoxic activity”) with S. typhimurium NM2009 is reported as “Neither these four PAHs induced umu gene expression; also recorded: none of these four chemicals showed any genotoxic activity”. Moreover, the cytotoxic activity in the data set on S. typhimurium NM2009 is 10-20%. Further, in the data set on S. typhimurium NM2009, the “genotoxicity after metabolic activation with P450 2A6 and 2A13” value (“genotoxicity after metabolic activation” for short) is reported as “negative results”.

In the case of `C1=Cc2cccc3cccc1c23` [acenaphthylene], the binding spectra induced entry on P450 2A6 [3] and at P450 2A13 [4] was “Type I” each time. Besides, the cytotoxicity result in the data set on HepG2 is given as “non-cytotoxic”. For the same molecule, the mutagenicity entry with S. typhimurium TM677 is “mutagenic”; in data set [6], “non-mutagenic”. In addition, the “inhibition of coumarin 7-hydroxylation activity” value with P450 2A6 [5] and in the data set with P450 2A13 [7] was “inhibit” throughout. The ΔAmax came out at 0.076±0.002 on P450 2A6 [1], 0.030±0.002 on P450 3A4 and 0.050±0.004 at P450 2A13 [2]. Also, the results for the “ΔAmax / Ks” value at P450 2A6 [1] (P450 2A6), at P450 3A4 (P450 3A4) and on P450 2A13 [2] (P450 2A13) were 0.017, 0.002 and 0.081, respectively. The molecule also yielded a Kd on P450 3A4 of 13 ± 2.7 µM. Moreover, the photomutagenicity entry with S. typhimurium TA120 is reported as “weakly mutagenic”. For the same molecule, the “genotoxic activity” value in the data set with S. typhimurium NM2009 is reported as “Neither these four PAHs induced umu gene expression; also recorded: none of these four chemicals showed any genotoxic activity”. Besides, the cytotoxic activity with S. typhimurium NM2009 is 10-20%. Moreover, the “genotoxicity after metabolic activation” value in the data set on S. typhimurium NM2009 is on record as “negative results”.

Consider `Oc1ccc2c(cc3ccc4cccc5ccc2c3c45)c1O` [benzo[a]pyrene-7,8-diol, reference compound], for which the “umu gene expression after metabolic activation (positive control)” value in the data set on S. typhimurium NM2009 (with P450 1B1, results not shown) was “induced umu gene expression”.

For `c1cc2c3c(cccc3c1)C1OC21` (centres unmarked) [1,2-epoxyacenaphthene, 1,2-Epoxyacenaphthene], the Kd came out at 1.78 ± 0.25 µM on P450 2A6 [1] (Ks (spectral dissociation constant), P450 2A6, 1 µM P450, pH 7.4, ± SE); 6.2 ± 0.87 µM on P450 3A4; 0.16 ± 0.03 µM on P450 2A13 [2]. The binding spectra induced entry on P450 2A6 [1] (P450 2A6), on P450 3A4 (P450 3A4) and on P450 2A13 [2] (P450 2A13) was “Type I” each time. Further, the “ΔAmax / Ks” value at P450 2A6 [1] (P450 2A6) is recorded as 0.035; on P450 3A4 (P450 3A4) it was 0.007; on P450 2A13 [2] (P450 2A13), 0.46. The ΔAmax at P450 2A6 [1] (P450 2A6, ± SE) was 0.062 ± 0.002; on P450 3A4 (P450 3A4, ± SE) it was 0.041 ± 0.002; at P450 2A13 [2] (P450 2A13, ± SE), 0.073 ± 0.002. Also, the spectral changes result on P450 2C9, at P450 1A2 and on P450 1B1 was “did not show any spectral changes” each time. On P450 2A6 [8], the “further oxidation by P450 2A6” value was “further oxidized”. The “Ks with P450 2A13 lower than with P450 2A6” value at P450 2A13 [2] (P450 2A13 vs P450 2A6) is ~ 10 fold. The “further oxidation by P450 2A13” value on P450 2A13 [9] is given as “to a small extent”. Besides, in the data set on S. typhimurium NM2009, the “genotoxic activity” value was “Neither these four PAHs induced umu gene expression; also recorded: none of these four chemicals showed any genotoxic activity”. Further, the cytotoxic activity in the data set with S. typhimurium NM2009 is given as 10-20%. Also, the “genotoxicity after metabolic activation” value in the data set with S. typhimurium NM2009 was “negative results”.

As for `c1cc2c3c(cccc3c1)CC2` [acenaphthene], the binding spectra induced entry at P450 2A6 [3] (P450 2A6) and on P450 2A13 [4] (P450 2A13) was “Type I” in each case. Moreover, the cytotoxicity result with HepG2 (human liver tumor cell lines and HepG2 in vitro) is “non-cytotoxic”. The “inhibition of coumarin 7-hydroxylation activity” value in the data set on P450 2A6 [5] (P450 2A6) and with P450 2A13 [7] (P450 2A13) was “inhibit” throughout. The entries for the “ΔAmax / Ks” value at P450 2A6 [1] (P450 2A6), at P450 3A4 (P450 3A4) and on P450 2A13 [2] (P450 2A13) were 0.055, 0.002 and 0.15, respectively. The ΔAmax amounted to 0.066±0.002 on P450 2A6 [1] (P450 2A6, ± SE); 0.040±0.003 on P450 3A4 (P450 3A4, ± SE); 0.074±0.005 on P450 2A13 [2] (P450 2A13, ± SE). In addition, the mutagenicity result in data set [6] (TA1537 and TA1538) was “non-mutagenic”. The molecule also gave a Kd at P450 3A4 of 19 ± 3.5 µM. Further, the IARC category result in [10] is “Group 3”. The photomutagenicity result in the data set with S. typhimurium TA120 was “weakly mutagenic”. Besides, the figures for the “genotoxic activity” value with S. typhimurium NM2009 and in the data set with S. typhimurium NM2009 (listed as Acenaphthene) were “Neither these four PAHs induced umu gene expression” and “none of these four chemicals showed any genotoxic activity”, respectively. Further, the cytotoxic activity in the data set on S. typhimurium NM2009 was 10-20%. Besides, the “genotoxicity after metabolic activation” value with S. typhimurium NM2009 is on record as “negative results”.

The values above are taken from PMC4755721 (Chemical research in toxicology, 2015).
